# Measured values from US8158635B2, “Solid forms comprising 4-[9-(tetrahydro-furan-3-yl)-8-(2,4,6-trifluoro-phenylamino)-9H-purin-2-ylamino]-cyclohexan-1-ol, compositions thereof, and uses therewith” (Signal Pharmaceuticals, LLC, priority 2006, dated 2012).
# Structures can show the parent of a compound that is named as a salt.
# Assays:
# [1] = Storage stability at stress conditions (about 40° C. and about 75% RH); type: physicochemical; conditions: about 40° C. and about 75% RH for about four weeks
# Experimental: In certain embodiments, Form A of the HCl salt of Compound I is substantially pure. In certain embodiments, Form A of the HCl salt of Compound I is stable upon slurry in particular solvents at particular temperatures. For example, in certain embodiments, Form A of the HCl salt is stable in, e.g., acetone, acetonitrile, ethyl acetate, heptane, MTBE, toluene, THF and mixtures of two or more thereof at about 40° C. for about four weeks. In certain embodiments, Form A of the HCl salt is stable upon storage at particular stress conditions. For example, in certain embodiments, Form A of the HCl salt of Compound I is stable upon storage at about 40° C. and about 75% RH for about four weeks.
# [2] = Equilibration of solid form in solvent for 4 weeks at 40° C., resulting form by XRPD; type: physicochemical
# Experimental: Equilibration slurry and evaporation experiments were carried out by adding an excess of Compound I free base or HCl salt to 2 mL of solvent. […] Upon reaching equilibrium, the saturated supernatant solution was removed and allowed to evaporate slowly in an open vial under nitrogen at 25° C. or 50° C., respectively. The slurry resulting from the equilibration was filtered and air-dried. X-ray powder diffraction (XRPD) measurements were performed in accordance with United States Pharmacopeia (USP) monograph <941> entitled “X-ray Diffraction” (See, e.g., The United States Pharmacopeia, The National Formulary, 2003, The Unites States Pharmacopeial Convention, Inc., Rockville, Md., 2002, which is herein incorporated by reference in its entirety). A Thermo ARL X'TRA X-ray powder diffractometer (Thermo Electron Corp., Waltham, Mass.), equipped with Nickel-filtered Cu Kα radiation at 1.54 Å, was used for XRPD measurements from about 1.5 °2θ to about 40 °2θ, with a step size of about 0.020°, a count time of about 0.50 seconds per step, and a step scan rate of about 2.40°/min. The instrument was equipped with a fine focus X-ray tube. The voltage and amperage were set at 45 kV and 40 mA, respectively. The divergence slits were set at 0.5 mm and 0.2 mm. Diffracted radiation was measured using a Peltier-cooled Si (Li) solid-state detector. Representative XRPD patterns were presented displaying intensity (counts per second) versus position (°2θ). A sintered alumina standard was used to check peak positions. Peak positions may vary from sample to sample by approximately ±0.1 °2θ. Variation in peak position may depend upon multiple factors, including particle size, sample preparation, data collection temperature and parameters. Variation in peak intensity may occur, e.g., as a result of preferred orientation and/or variation in crystal habit.
smiles,measurement,setting,value
"OC1CCC(Nc2ncc3nc(Nc4c(F)cc(F)cc4F)n(C4CCOC4)c3n2)CC1 (stereo not shown) [Form A of the HCl salt of Compound I, 4-[9-(tetrahydro-furan-3-yl)-8-(2,4,6-trifluoro-phenylamino)-9H-purin-2-ylamino]-cyclohexan-1-ol]",stability upon storage at stress conditions,[1],stable
same,Resulting Form by XRPD,[2]; Equilibrate HCl salt Form A in 2-Propanol for 4 weeks at 40° C.,Compound I HCl Salt Form A
same,Resulting Form by XRPD,[2]; Equilibrate HCl salt Form A in Acetonitrile for 4 weeks at 40° C.,Compound I HCl Salt Form A
same,Resulting Form by XRPD,[2]; Equilibrate HCl salt Form A in Ethyl acetate for 4 weeks at 40° C.,Compound I HCl Salt Form A
same,Resulting Form by XRPD,[2]; Equilibrate HCl salt Form A in Heptane for 4 weeks at 40° C.,Compound I HCl Salt Form A
same,Resulting Form by XRPD,[2]; Equilibrate HCl salt Form A in MTBE for 4 weeks at 40° C.,Compound I HCl Salt Form A
same,Resulting Form by XRPD,[2]; Equilibrate HCl salt Form A in THF for 4 weeks at 40° C.,Compound I HCl Salt Form A
same,Resulting Form by XRPD,[2]; Equilibrate HCl salt Form A in Toluene for 4 weeks at 40° C.,Compound I HCl Salt Form A
same,Resulting Form by XRPD,[2]; Equilibrate HCl salt in Acetone for 4 weeks at 40° C.,Compound I HCl Salt Form A
same,stability upon slurry in solvents,"[2]; acetone, acetonitrile, ethyl acetate, heptane, MTBE, toluene, THF and mixtures, about 40° C. for about four weeks",stable
